Results on four cell lines are retold here after the supplement of paper PMC10307832.

Experiment in all cases: relative viability (nuclei count vs DMSO), 5 days (fraction); higher = more cells survive
Compound in the test “Ispinesib + OSI-027”: Cc1ccc(C(=O)N(CCCN)[C@@H](c2nc3cc(Cl)ccc3c(=O)n2Cc2ccccc2)C(C)C)cc1 [Ispinesib] + COc1cccc2cc(-c3nc([C@H]4CC[C@H](C(=O)O)CC4)n4ncnc(N)c34)[nH]c12 [OSI-027] (partner 0.5 µM)
Put shortly:
(§1)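 A single step with final 0.05% Triton X-100, 1% formaldehyde and 1 ug/ml Hoechst fixed the cells and stained nuclei 5 days after treatment. Lung cancer cell lines in 1536-well plates had been treated by pin tool the day after seeding with one drug alone or a fixed anchor-drug dose plus five library-drug doses (not always all listed) in √10 steps, and nuclei were counted on 4× images. Relative viability is the ratio of nuclei in treated wells to nuclei in vehicle wells, taken as the median of duplicate plates.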

Compound in the test “Ispinesib + AZD7762”: Cc1ccc(C(=O)N(CCCN)[C@@H](c2nc3cc(Cl)ccc3c(=O)n2Cc2ccccc2)C(C)C)cc1 [Ispinesib] + NC(=O)Nc1cc(-c2cccc(F)c2)sc1C(=O)N[C@H]1CCCNC1 [AZD7762] (partner 0.2 µM)
Put shortly: as §1

Compound in the test “Linsitinib + Tozasertib”: C[C@]1(O)C[C@@H](c2nc(-c3ccc4ccc(-c5ccccc5)nc4c3)c3c(N)nccn32)C1 [Linsitinib] + Cc1cc(Nc2cc(N3CCN(C)CC3)nc(Sc3ccc(NC(=O)C4CC4)cc3)n2)n[nH]1 [Tozasertib] (partner 0.1 µM)
Put shortly: as §1

Compound in the test “Ispinesib + Foretinib”: Cc1ccc(C(=O)N(CCCN)[C@@H](c2nc3cc(Cl)ccc3c(=O)n2Cc2ccccc2)C(C)C)cc1 [Ispinesib] + COc1cc2c(Oc3ccc(NC(=O)C4(C(=O)Nc5ccc(F)cc5)CC4)cc3F)ccnc2cc1OCCCN1CCOCC1 [Foretinib] (partner 0.25 µM)
The procedure, abridged: as §1

With NCI-H647, the relative viability in the test with Ispinesib + OSI-027 (first compound 0.001 µM) was 0.76; with Ispinesib + OSI-027 (first compound 0.003162 µM) it was 0.696; with Ispinesib + OSI-027 (first compound 0.01 µM), 0.766; in the test with Ispinesib + OSI-027 (first compound 0.03162 µM), 0.235; with Ispinesib + OSI-027 (first compound 0.1 µM), 0.107; with Ispinesib + AZD7762 (first compound 0.001 µM), 0.662. The relative viability with Ispinesib + AZD7762 (first compound 0.003162 µM) came out at 0.564; with Ispinesib + AZD7762 (first compound 0.01 µM) it was 0.451; in the test with Ispinesib + AZD7762 (first compound 0.03162 µM), 0.185; with Ispinesib + AZD7762 (first compound 0.1 µM), 0.172; with Linsitinib + Tozasertib (first compound 0.01 µM), 0.342; with Linsitinib + Tozasertib (first compound 0.03162 µM), 0.262. In addition, the relative viability with Linsitinib + Tozasertib (first compound 0.1 µM) turned out to be 0.319; in the test with Linsitinib + Tozasertib (first compound 1 µM) it was 0.217; in the test with Ispinesib + Foretinib (first compound 0.001 µM), 1.26; with Ispinesib + Foretinib (first compound 0.003162 µM) it was 1.32; with Ispinesib + Foretinib (first compound 0.01 µM), 1.41; with Ispinesib + Foretinib (first compound 0.03162 µM), 0.703. Also, in the test with Ispinesib + Foretinib (first compound 0.1 µM), the relative viability is 0.191.
Regarding NCI-H1734, the relative viability in the test with Ispinesib + OSI-027 (first compound 0.001 µM) stood at 0.609; in the test with Ispinesib + OSI-027 (first compound 0.003162 µM), 0.585; in the test with Ispinesib + OSI-027 (first compound 0.01 µM), 0.659; with Ispinesib + OSI-027 (first compound 0.03162 µM), 0.459; in the test with Ispinesib + OSI-027 (first compound 0.1 µM), 0.177; with Ispinesib + AZD7762 (first compound 0.001 µM), 0.709. The relative viability with Ispinesib + AZD7762 (first compound 0.003162 µM) was 0.627; with Ispinesib + AZD7762 (first compound 0.01 µM), 0.64; with Ispinesib + AZD7762 (first compound 0.03162 µM), 0.448; with Ispinesib + AZD7762 (first compound 0.1 µM), 0.245; in the test with Linsitinib + Tozasertib (first compound 0.01 µM), 0.242; with Linsitinib + Tozasertib (first compound 0.03162 µM), 0.244. The relative viability in the test with Linsitinib + Tozasertib (first compound 0.1 µM) was found to be 0.274; with Linsitinib + Tozasertib (first compound 0.3162 µM), 0.242; with Linsitinib + Tozasertib (first compound 1 µM), 0.267; with Ispinesib + Foretinib (first compound 0.001 µM), 0.809; with Ispinesib + Foretinib (first compound 0.003162 µM), 0.859; with Ispinesib + Foretinib (first compound 0.01 µM), 1.08. Further, the relative viability with Ispinesib + Foretinib (first compound 0.03162 µM) stood at 0.827; with Ispinesib + Foretinib (first compound 0.1 µM), 0.343.
As for NCI-H1395, the relative viability came out at 0.642 in the test with Ispinesib + OSI-027 (first compound 0.001 µM); 0.681 with Ispinesib + OSI-027 (first compound 0.003162 µM); 0.67 in the test with Ispinesib + OSI-027 (first compound 0.01 µM); 0.384 in the test with Ispinesib + OSI-027 (first compound 0.03162 µM); 0.316 with Ispinesib + OSI-027 (first compound 0.1 µM); 0.411 in the test with Ispinesib + AZD7762 (first compound 0.001 µM). For the same cell line, the relative viability turned out to be 0.403 with Ispinesib + AZD7762 (first compound 0.003162 µM); 0.356 with Ispinesib + AZD7762 (first compound 0.01 µM); 0.31 with Ispinesib + AZD7762 (first compound 0.03162 µM); 0.355 in the test with Ispinesib + AZD7762 (first compound 0.1 µM); 0.838 in the test with Linsitinib + Tozasertib (first compound 0.01 µM); 0.768 in the test with Linsitinib + Tozasertib (first compound 0.03162 µM). The relative viability with Linsitinib + Tozasertib (first compound 0.1 µM) was determined as 0.723; with Linsitinib + Tozasertib (first compound 0.3162 µM), 0.731; with Linsitinib + Tozasertib (first compound 1 µM), 0.667; with Ispinesib + Foretinib (first compound 0.001 µM), 1.06; in the test with Ispinesib + Foretinib (first compound 0.003162 µM) it was 0.998; with Ispinesib + Foretinib (first compound 0.01 µM), 1.03. The relative viability in the test with Ispinesib + Foretinib (first compound 0.03162 µM) was determined as 0.866; with Ispinesib + Foretinib (first compound 0.1 µM), 0.356.
In the case of EMC-BAC-2, the relative viability stood at 0.388 in the test with Ispinesib + OSI-027 (first compound 0.001 µM); 0.402 with Ispinesib + OSI-027 (first compound 0.003162 µM); 0.356 with Ispinesib + OSI-027 (first compound 0.01 µM); 0.25 in the test with Ispinesib + OSI-027 (first compound 0.03162 µM); 0.309 in the test with Ispinesib + OSI-027 (first compound 0.1 µM); 1.22 with Ispinesib + AZD7762 (first compound 0.001 µM). For the same cell line, the relative viability in the test with Ispinesib + AZD7762 (first compound 0.003162 µM) was 1.23; with Ispinesib + AZD7762 (first compound 0.01 µM), 1.34; with Ispinesib + AZD7762 (first compound 0.03162 µM), 0.704; with Ispinesib + AZD7762 (first compound 0.1 µM), 0.599; in the test with Linsitinib + Tozasertib (first compound 0.01 µM), 0.294; in the test with Linsitinib + Tozasertib (first compound 0.03162 µM), 0.271. Further, the relative viability was 0.291 in the test with Linsitinib + Tozasertib (first compound 0.1 µM); 0.206 with Linsitinib + Tozasertib (first compound 0.3162 µM); 0.255 with Linsitinib + Tozasertib (first compound 1 µM); 1.03 with Ispinesib + Foretinib (first compound 0.001 µM); 0.621 with Ispinesib + Foretinib (first compound 0.003162 µM); 0.997 with Ispinesib + Foretinib (first compound 0.01 µM). Also, the results for the relative viability with Ispinesib + Foretinib (first compound 0.03162 µM) and in the test with Ispinesib + Foretinib (first compound 0.1 µM) were 0.818 and 0.39, respectively.
